Laboratory results from the METLIN SMRT retention time set (Domingo-Almenara et al. 2019).

Assay: gradient 5% acetonitrile 3 min, to 50% in 2 min, to 85% in 15 min, held 3 min, 100 µL/min
Details: column: Zorbax Extend-C18 2.1 x 50 mm; eluents: water / acetonitrile, 0.1% formic acid
Method in brief: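 Pure standards were run in mixtures of ~100 molecules by HPLC coupled to a quadrupole time-of-flight mass spectrometer. The column was a Zorbax Extend-C18 (2.1 × 50 mm, 1.8 μm) at 100 μL/min, with water and acetonitrile each containing 0.1% formic acid, in positive and negative ionization mode. Dead and dwell volumes were 40 μL and 900 μL. Retention time was taken from computationally picked adduct peaks, each manually inspected, with data collected over 3 months.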

RP-LC retention time [s] | SMILES
839 | CC1CCN(C(=O)c2cc(S(=O)(=O)N3CCC(C(=O)NC4CCCCC4)CC3)cn2C)CC1
595 | CC(C)NC(=O)CCc1c(-c2ccccc2)nc2ccccn12
578 | CCCn1cnc2cc(CNC(=O)c3cnccn3)ccc21
954 | CCS(=O)(=O)N1CCCc2cc(C(=O)Nc3cc(OC)ccc3OC)ccc21
923 | CCOC(=O)C1C(=O)C=C(c2ccc(OC)c(OC)c2)CC1c1cccc(OC)c1OC (centres undefined)
652 | Cc1nnc(-c2nnc(NCC(C)C)c3ccccc23)o1
794 | COc1ccc(OCC2CN(C(=O)Cc3ccc(OC)c(OC)c3OC)CCO2)cc1 (centres undefined)
693 | O=C(NCc1csc(C2CCCN(C(=O)c3ccccc3)C2)n1)C1CC1 (centres undefined)
919 | CCN(CC)c1nc2ccsc2c(=O)n1CCC(=O)N1CCN(c2ccccc2)CC1
787 | Cc1cccc(-c2nc(N3CCOCC3)ncc2C(=O)O)c1
776 | O=C(Cn1ccc2sccc2c1=O)Nc1ccc(Cl)cc1
877 | O=C(Cc1csc2nc(-c3ccccc3)cn12)NC1CCCCCCC1
870 | O=C(Cn1ccc2ccc(N3CCOCC3)nc21)NCc1ccc(F)cc1F
829 | Cc1ccc(NC(=O)N2CCC(c3nc(C(=O)N4CCCC4)c(C)o3)CC2)cc1C
839 | COc1ccc(OC)c(Nc2c(-c3ccccc3)nc3cnccn23)c1
896 | COc1cccc(-c2noc(-c3nn(-c4ccc(Cl)cc4)ccc3=O)n2)c1OC
848 | COc1ccc(OC)c(CCN2CC(=O)N(c3cccc(C)c3)[C@@H]3CS(=O)(=O)C[C@@H]32)c1
718 | Cc1cc2c(cc1S(=O)(=O)N1CCCC1C(=O)NC1CCCC1)OCC(=O)N2 (centres undefined)
649 | CC(C(=O)NCCN(C)C)C1CCN(C(=O)c2cc3cc(Cl)ccc3[nH]2)CC1 (centres undefined)
810 | Cc1cc(C)nc(-n2nc(C)c3c2N(C)C(=O)CC3c2ccccc2Cl)n1 (centres undefined)
887 | COc1ccc(OC)c(-c2cn3ccn(-c4ccc(Cl)cc4)c(=O)c3n2)c1
896 | Cc1[nH]c(-c2ccccc2)cc1C(=O)N1CCCCCC1
900 | COc1ccc(NC(=O)CN2C(=O)CCc3cc(Br)ccc32)c(OC)c1
889 | COc1ccccc1C(=O)Nc1nc(-c2ccc3c(c2)NC(=O)CO3)c(C)s1
659 | COCCNC(=O)CC1Sc2ncccc2N(CC(C)C)C1=O (centres undefined)
682 | Cc1ccc(Cl)cc1NC(=O)N1CCC(n2cnc3cccnc32)CC1

RP-LC retention time [s] | SMILES
650 | O=C(NC1CCN(c2cc(-c3ccccc3)[nH]n2)C1)c1ccoc1 (centres undefined)
772 | COc1ccccc1-c1nc2cnccn2c1NCCC(=O)N1CCc2ccccc21
651 | Cc1nc(N2CCCC2)cc(N2CCN(C(=O)c3ccccc3Br)CC2)n1
997 | Cc1nn(CC(=O)NCCCOC(C)C)c(=O)c2c(-n3cccc3)n(-c3ccc(Cl)cc3)nc12
760 | O=C(NC1CCCN(c2cc(-c3ccccc3)[nH]n2)C1)c1ccc2c(c1)OCO2 (centres undefined)
630 | COc1ccc(Cl)c2c(=O)c3c([nH]c12)CCN(CC(=O)NCc1ccc(C)cc1)C3
759 | CCCC(=O)NCCn1c(=O)n(Cc2cccc(C)c2)c2cccnc21
561 | O=C1CCN(Cc2ccc(F)cc2F)CCOCCN1
722 | O=C(Cc1ccccc1Cl)NCC1CCN(C(=O)c2ccccc2F)CC1
764 | Fc1ccc(Cc2nc(-c3ccn4cnnc4c3)no2)cc1
702 | CN(Cc1ccccc1)C(=O)CC(=O)Nc1ccc2nc3n(c(=O)c2c1)CCCCC3
716 | O=C(NCCC1CCN(C(=O)Nc2ccc(F)cc2)CC1)c1ccoc1
695 | Cc1cccc(CNC(=O)C2CCN(S(=O)(=O)c3c(C)[nH]c(C)c3C(=O)N3CCCC3)CC2)c1
583 | CCN1C(=O)Cc2cc(C(=O)N3CCN(C4CCCCC4)CC3)ccc21
866 | CC(NC(=O)Cn1cc(C(=O)C2CC2)c2ccccc21)c1ccc2c(c1)OCCCO2 (centres undefined)
861 | CCc1cccc(NC(=O)Cn2c(C)nc3onc(C)c3c2=O)c1
845 | O=C(C(=O)N1CCN(c2ccccc2)CC1)c1c[nH]c2ccccc12
653 | Cc1cc(NC(=O)NC(=O)c2ccccc2NC(=O)CN)ccc1Oc1ncc(Br)cn1
1110 | O=C(Cn1cccc1-c1nc(-c2ccccc2)no1)N1CCc2ccccc21
580 | CC1CCN(C(=O)c2cc3c(s2)CCC(C(=O)O)C3)CC1 (centres undefined)
555 | O=c1ccc(-n2ccnc2)nn1CCNS(=O)(=O)Cc1cc(F)ccc1F
584 | O=C(c1ccc2c(c1)OCO2)N1CCCn2nc(-c3ccncc3)cc2C1
627 | Cc1ccc(-c2nc3cccnc3n2CCN2CCN(C(=O)NC3CCCC3)CC2)cc1
694 | CCc1nc2cc(N3CCCC(C(=O)NCC4CCCO4)C3)cnc2nc1CC (centres undefined)
798 | Cc1cc(-n2c(C)nc3ccccc3c2=O)ccc1NC(=O)Cc1ccccc1F

Second part, the compound before the results:

SMILES | RP-LC retention time [s]
O=C(CCC1CCCN(S(=O)(=O)c2ccccc2)C1)N1CCN(c2ccccn2)CC1 (centres undefined) | 657
CCCNc1cc(N2CCC(CCC(=O)NCc3ccccn3)CC2)ncn1 | 556
CCOC(=O)c1c(S(=O)(=O)N2CCC(C(=O)NCc3cccs3)CC2)c(C)n(C)c1C | 774
CC(C)CN1Cc2ccccc2-n2ccnc2C12CCN(C(=O)c1ccccc1F)CC2 | 650
O=C(CN1C(=O)COc2ccc(C(=O)N3CCCC3)cc21)NCCCc1ccccc1 | 747
Cn1cc(CCNC(=O)Nc2ccc3c(c2)OCCO3)c2cccnc21 | 639
Cc1cn2c(S(=O)(=O)NC3CCCCCC3)c(C(C)C)nc2s1 | 1050
Cn1cc2c(n1)c(=O)n(Cc1ccc(Cl)cc1)c1nn(Cc3ccccc3)c(=O)n21 | 960
Cc1ccc(C)c(Cn2nc3c(S(=O)(=O)N4CCCC4)cccn3c2=O)c1 | 914
CN(C)C(=O)c1csc(S(=O)(=O)N2CCC(C(=O)NC3CCCC3)CC2)c1 | 696
O=C(CCc1c(-c2ccc(Cl)cc2)nc2ccccn12)NCCCc1ccccc1 | 719
O=C(Cc1nnc(-c2ccc3ncccc3c2)o1)NCc1ccc(Cl)cc1 | 721
O=C(NCCCN1CCCC1=O)C1=C2CCCN2c2ccc(F)cc2S1(=O)=O | 650
CC1(C(=O)NCc2ccc(F)cc2)CN(S(C)(=O)=O)CC(=O)N1c1cccc(F)c1 (centres undefined) | 764
CCc1nc(-c2csc(S(=O)(=O)N3CCCC(C(=O)Nc4ccc(C)cc4)C3)c2)no1 (centres undefined) | 901
Cc1ccn2c(NC(=O)C(C)(C)C)c(-c3ccc(F)cc3)nc2c1 | 648
O=C(Cc1noc2ccccc12)NCc1cc(-c2ccc(F)cc2F)on1 | 818
COCc1noc([C@@H]2CN(Cc3ccc(Br)o3)C[C@H]2C(N)=O)n1 | 565
CC(C)(C)NC(=O)N1CC(N(Cc2ccncc2)S(C)(=O)=O)C1 | 573

SMILES | RP-LC retention time [s]
COc1ccc(-n2cc(C(=O)OCC(=O)OC(C)(C)C)c3ccccc3c2=O)cc1 | 1140
CCc1ccccc1NC(=O)N1CCN(C2=CC3=NC(CC)CN3C=N2)CC1 (centres undefined) | 642
Cc1ccc(C(=O)N2C[C@@H]3C[C@H](NC(=O)c4cccs4)[C@H]2C3)cn1 | 581
O=C1CCCCC(Cc2ccccc2)(C(=O)N2CCc3ccccc3C2)N1 (centres undefined) | 836
CCOC(=O)c1c(NC(=O)CSc2nnc(-c3cccnc3)o2)sc2c1CCC2 | 932
O=C(c1c[nH]c2ccccc12)N1CCN(c2cc(-c3ccc(Cl)cc3)[nH]n2)CC1 | 811
CCS(=O)(=O)N1CCC(Cc2nncn2-c2ccccc2)C1 (centres undefined) | 631
Cc1cnc(-c2ccncc2)n1CC1CCN(S(=O)(=O)c2ccc3c(c2)OCCO3)C1 (centres undefined) | 626
CNC(=O)[C@@H]1CN(C(=O)CCc2nc3ccccc3s2)C[C@H]1c1n[nH]c(C)n1 | 607
CC(C)CN1CCn2cc(C(=O)NCc3cccc(Br)c3)nc2C1 | 656
O=c1c2sccc2n(Cc2nc(-c3ccccc3)no2)c(=O)n1-c1cccc(F)c1 | 959
COc1ccc(OC)c(S(=O)(=O)N2CCCC3(CC2)CNC(=O)O3)c1 (centres undefined) | 685
CCOc1ccc(-c2cc3c(=O)n(Cc4nc(-c5ccccc5C)no4)ccn3n2)cc1 | 1170
c1ccc(Cn2cnnc2C2CCN(CC3CC3)CC2)cc1 | 566
O=C(Cn1ccc2ccn(Cc3ccccc3F)c2c1=O)NCc1ccc2c(c1)OCO2 | 894
CCOc1ccccc1CNC(=O)C1CCN(S(=O)(=O)c2ccc3[nH]c(=O)ccc3c2)CC1 | 750
CC(=O)N1CCC2(CC1)C(=O)N(C)c1ccccc12 | 665
O=C(Nc1cccn2ncnc12)c1ccccc1C(F)(F)F | 765
CC(C)(CO)NCc1ccc(-c2cccc(C(F)(F)F)c2)o1 | 660
